Results on 20 compounds are retold here after ChEMBL document CHEMBL3991601, “The target landscape of clinical kinase drugs” (Science, 2017).

What is called Kd is the free concentration of one partner at which half of the binding sites on the other are occupied at equilibrium, for simple one-to-one binding.

The source made the active and inactive calls.

One assay has as its target T1, dCTP pyrophosphatase 1 (Homo sapiens, UniProt Q9H773).
T1 sequence (Q9H773 whole entry): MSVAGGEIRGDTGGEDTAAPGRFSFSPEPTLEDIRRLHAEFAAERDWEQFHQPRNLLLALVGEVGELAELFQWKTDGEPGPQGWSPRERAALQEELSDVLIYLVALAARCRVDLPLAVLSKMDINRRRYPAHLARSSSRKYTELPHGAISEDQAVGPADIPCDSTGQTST

The target in another assay is T2, Scaffold protein ILK (Homo sapiens, UniProt Q13418).
T2 sequence (Q13418 whole entry): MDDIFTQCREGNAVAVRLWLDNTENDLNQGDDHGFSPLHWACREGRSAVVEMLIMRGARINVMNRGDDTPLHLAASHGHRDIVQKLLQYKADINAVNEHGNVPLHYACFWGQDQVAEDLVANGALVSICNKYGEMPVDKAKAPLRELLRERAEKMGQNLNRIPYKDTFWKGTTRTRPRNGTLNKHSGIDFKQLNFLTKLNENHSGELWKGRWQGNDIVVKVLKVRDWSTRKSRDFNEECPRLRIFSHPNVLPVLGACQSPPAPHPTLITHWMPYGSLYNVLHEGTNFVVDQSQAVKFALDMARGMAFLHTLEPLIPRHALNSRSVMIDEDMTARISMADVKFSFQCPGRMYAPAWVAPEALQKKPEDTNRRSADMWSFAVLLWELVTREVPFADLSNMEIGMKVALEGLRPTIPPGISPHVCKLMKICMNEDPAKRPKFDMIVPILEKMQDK

Assay [1] addresses T3, Bifunctional phosphoribosylaminoimidazole carboxylase/phosphoribosylaminoimidazole succinocarboxamide synthetase (Homo sapiens, UniProt P22234).
T3 sequence (P22234 whole entry): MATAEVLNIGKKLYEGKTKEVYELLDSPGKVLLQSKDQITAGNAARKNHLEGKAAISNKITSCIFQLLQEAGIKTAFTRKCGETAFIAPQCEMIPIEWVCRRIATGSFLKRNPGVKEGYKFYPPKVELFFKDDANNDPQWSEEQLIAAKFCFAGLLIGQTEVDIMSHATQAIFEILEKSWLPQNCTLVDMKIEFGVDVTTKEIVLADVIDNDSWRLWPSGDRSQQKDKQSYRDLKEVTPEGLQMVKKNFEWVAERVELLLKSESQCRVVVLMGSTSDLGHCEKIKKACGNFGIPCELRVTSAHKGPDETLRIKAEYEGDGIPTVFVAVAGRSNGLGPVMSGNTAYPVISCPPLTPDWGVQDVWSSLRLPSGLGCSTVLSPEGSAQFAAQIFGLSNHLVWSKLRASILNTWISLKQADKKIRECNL

The target in assay [2] is T4, Non-receptor tyrosine-protein kinase TNK1 (Homo sapiens, UniProt Q13470).
T4 sequence (Q13470 whole entry): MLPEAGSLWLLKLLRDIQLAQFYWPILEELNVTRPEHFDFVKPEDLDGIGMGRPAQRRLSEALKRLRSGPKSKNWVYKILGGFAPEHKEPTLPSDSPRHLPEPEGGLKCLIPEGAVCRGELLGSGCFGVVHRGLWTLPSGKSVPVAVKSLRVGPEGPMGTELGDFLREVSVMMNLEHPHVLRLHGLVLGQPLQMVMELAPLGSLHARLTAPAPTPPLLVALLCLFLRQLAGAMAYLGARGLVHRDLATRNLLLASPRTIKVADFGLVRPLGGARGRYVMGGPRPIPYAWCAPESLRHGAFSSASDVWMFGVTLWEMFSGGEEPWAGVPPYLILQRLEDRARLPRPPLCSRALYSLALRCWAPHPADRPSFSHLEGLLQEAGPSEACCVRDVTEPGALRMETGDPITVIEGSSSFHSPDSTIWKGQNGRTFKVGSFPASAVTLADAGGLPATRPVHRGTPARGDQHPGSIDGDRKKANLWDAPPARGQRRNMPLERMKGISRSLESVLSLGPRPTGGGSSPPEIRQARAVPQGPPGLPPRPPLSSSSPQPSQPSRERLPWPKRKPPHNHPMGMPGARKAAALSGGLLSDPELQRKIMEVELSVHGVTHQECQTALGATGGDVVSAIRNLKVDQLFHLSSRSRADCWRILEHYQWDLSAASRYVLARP

Assay [3] addresses T5, Tyrosine--tRNA ligase, cytoplasmic (Homo sapiens, UniProt P54577).
T5 sequence (P54577 whole entry): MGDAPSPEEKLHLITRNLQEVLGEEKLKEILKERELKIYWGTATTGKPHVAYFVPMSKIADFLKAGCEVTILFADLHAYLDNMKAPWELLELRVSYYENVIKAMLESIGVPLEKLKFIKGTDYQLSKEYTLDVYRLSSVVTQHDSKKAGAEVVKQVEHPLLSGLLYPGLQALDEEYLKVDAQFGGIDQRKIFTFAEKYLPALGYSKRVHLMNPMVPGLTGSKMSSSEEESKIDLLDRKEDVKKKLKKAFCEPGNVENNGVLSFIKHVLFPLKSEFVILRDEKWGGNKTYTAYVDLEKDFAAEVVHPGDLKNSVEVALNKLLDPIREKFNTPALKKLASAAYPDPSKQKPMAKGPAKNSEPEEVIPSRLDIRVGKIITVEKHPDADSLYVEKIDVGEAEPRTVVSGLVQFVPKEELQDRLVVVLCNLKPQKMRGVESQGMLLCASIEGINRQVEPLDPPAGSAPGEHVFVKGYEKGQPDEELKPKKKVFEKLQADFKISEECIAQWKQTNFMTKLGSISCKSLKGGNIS
Note: in the data inactive means no Kd found up to 30 µM.

For `COc1ccc(-c2ccc3c(N4CCOC[C@@H]4C)nc(N4CCOC[C@@H]4C)nc3n2)cc1CO` [AZD-8055], the Kd (at dCTP pyrophosphatase 1; at Scaffold protein ILK; in assay [1]; in assay [2]; in assay [3]) was > 30 µM (inactive) in each case.
As for `O=C(O)[C@]1(Cc2cccc(Nc3nccs3)n2)CC[C@@H](Oc2cccc(Cl)c2F)CC1` [MK-5108], the Kd was > 30 µM (inactive) on dCTP pyrophosphatase 1; > 30 µM (inactive) on Scaffold protein ILK; > 30 µM (inactive) in assay [1]; 0.006 µM (active) in assay [2]; > 30 µM (inactive) in assay [3].
As for `COc1cc2nccc(Oc3ccc(NC(=O)Nc4cc(C)on4)c(Cl)c3)c2cc1OC` [TIVOZANIB], the Kd (at dCTP pyrophosphatase 1; on Scaffold protein ILK; in assay [1]; in assay [2]; in assay [3]) was > 30 µM (inactive) each time.
For `COc1cc(N2CCC(N3CCN(C)CC3)CC2)ccc1Nc1ncnc(Nc2ccccc2S(=O)(=O)C(C)C)n1` [ASP-3026], the Kd was > 30 µM (inactive) at dCTP pyrophosphatase 1; > 30 µM (inactive) on Scaffold protein ILK; > 30 µM (inactive) in assay [1]; 0.033 µM (active) in assay [2]; > 30 µM (inactive) in assay [3].
Take `CN1CCC(CNc2ccc3ncc(-c4cccc(OC(F)(F)F)c4)n3n2)CC1` [SGI-1776]: the Kd (at dCTP pyrophosphatase 1; on Scaffold protein ILK; in assay [1]; in assay [2]; in assay [3]) was > 30 µM (inactive) each time.
On to `CC(=O)Nc1cccc(-n2c(=O)n(C3CC3)c(=O)c3c(Nc4ccc(I)cc4F)n(C)c(=O)c(C)c32)c1` [TRAMETINIB], for which the Kd (at dCTP pyrophosphatase 1; at Scaffold protein ILK; in assay [1]; in assay [2]; in assay [3]) was > 30 µM (inactive) each time.
In the case of `CCc1cnn2c(NCc3ccc[n+]([O-])c3)cc(N3CCCC[C@H]3CCO)nc12` [DINACICLIB], the Kd (on dCTP pyrophosphatase 1; at Scaffold protein ILK; in assay [1]; in assay [2]; in assay [3]) was > 30 µM (inactive) in each case.
Take `Cn1ncc(Cl)c1-c1cc(C(=O)N[C@H](CN)Cc2cccc(F)c2)sc1Cl` [AFURESERTIB]: the Kd (on dCTP pyrophosphatase 1; at Scaffold protein ILK; in assay [1]; in assay [2]; in assay [3]) was > 30 µM (inactive) throughout.
On to `OCCn1cc(-c2cnc3nnn(Cc4ccc5ncccc5c4)c3n2)cn1` [PF-04217903], for which the Kd (on dCTP pyrophosphatase 1; at Scaffold protein ILK; in assay [1]; in assay [2]; in assay [3]) was > 30 µM (inactive) each time.
As to `CCCS(=O)(=O)Nc1ccc(F)c(C(=O)c2c[nH]c3ncc(-c4ccc(Cl)cc4)cc23)c1F` [VEMURAFENIB], the Kd (at dCTP pyrophosphatase 1; on Scaffold protein ILK; in assay [1]; in assay [2]; in assay [3]) was > 30 µM (inactive) in each case.
Turning to `COCCNCc1ccc(-c2cc3nccc(Oc4ccc(NC(=S)NC(=O)Cc5ccc(F)cc5)cc4F)c3s2)nc1` [GLESATINIB], the Kd on dCTP pyrophosphatase 1 is > 30 µM (inactive); at Scaffold protein ILK, > 30 µM (inactive); in assay [1] it was > 30 µM (inactive); in assay [2] it was 1.49 µM (active); in assay [3], > 30 µM (inactive).
`COC(=O)[C@@]1(O)C[C@H]2O[C@]1(C)n1c3ccccc3c3c4c(c5c6ccccc6n2c5c31)C(=O)NC4` [K-252A]: the Kd on dCTP pyrophosphatase 1 was > 30 µM (inactive); at Scaffold protein ILK, > 30 µM (inactive); in assay [1], > 30 µM (inactive); in assay [2], 0.287 µM (active); in assay [3], > 30 µM (inactive).
Regarding `Cn1cc(-c2ccc3nnc(C(F)(F)c4ccc5ncccc5c4)n3n2)cn1` [JNJ-38877605], the Kd (on dCTP pyrophosphatase 1; at Scaffold protein ILK; in assay [1]; in assay [2]; in assay [3]) was > 30 µM (inactive) each time.
Take `Cc1cc([C@@H](C)Nc2ccccc2C(=O)O)c2nc(N3CCOCC3)cc(=O)n2c1` [AZD-6482]: the Kd (on dCTP pyrophosphatase 1; at Scaffold protein ILK; in assay [1]; in assay [2]; in assay [3]) was > 30 µM (inactive) throughout.
Regarding `COc1cc(CCc2cc(NC(=O)c3ccc(N4C[C@@H](C)N[C@@H](C)C4)cc3)n[nH]2)cc(OC)c1` [AZD-4547], the Kd (at dCTP pyrophosphatase 1; on Scaffold protein ILK; in assay [1]; in assay [2]; in assay [3]) was > 30 µM (inactive) in each case.
For the compound `CNC(=O)c1ccc(-c2cnc3ncc(Cc4ccc5ncccc5c4)n3n2)cc1F` [CAPMATINIB], the Kd (on dCTP pyrophosphatase 1; on Scaffold protein ILK; in assay [1]; in assay [2]; in assay [3]) was > 30 µM (inactive) throughout.
For the compound `CN1CC[C@@H](c2c(O)cc(O)c3c(=O)cc(-c4ccccc4Cl)oc23)[C@@H]1CO`, the Kd (on dCTP pyrophosphatase 1; on Scaffold protein ILK; in assay [1]; in assay [2]; in assay [3]) was > 30 µM (inactive) in each case.
As to `N[C@@H]1CCCN(c2c(/C=C3\SC(=O)NC3=O)cccc2-c2ccccc2)C1`, the Kd (at dCTP pyrophosphatase 1; on Scaffold protein ILK; in assay [1]; in assay [2]; in assay [3]) was > 30 µM (inactive) each time.
For the compound `CCN1CCN(Cc2ccc(-c3cc4c(N[C@H](C)c5ccccc5)ncnc4[nH]3)cc2)CC1` [AEE-788], the Kd (on dCTP pyrophosphatase 1; at Scaffold protein ILK; in assay [1]; in assay [2]; in assay [3]) was > 30 µM (inactive) in each case.
`C[C@@H]1CN(Cc2ccc(F)cc2)[C@@H](C)CN1C(=O)c1cc2c(C(=O)C(=O)N(C)C)cn(C)c2cc1Cl` [TALMAPIMOD]: the Kd (on dCTP pyrophosphatase 1; on Scaffold protein ILK; in assay [1]; in assay [2]; in assay [3]) was > 30 µM (inactive) each time.
